Experimental data from patent publication US12097184B2, “Formulations of psilocin that have enhanced stability” (priority 2021, dated 2024).
Marks after values point to notes of the source that are not given here.

Key:
[1] = Salt screen using solutions in ethanol, appearance/colour on storage; conditions: light-protected; for Results at 18 h: ethanol solution, storage overnight at RT, Ar; for Result at 6 days: solvent removed, stored at RT under Ar, appearance after addition of EtOH
Exposure of HBr1 to AAC = assay type: physicochemical; conditions: AAC for two days
Excerpt: HBr1 was unstable upon exposure to AAC for two days and became deliquescent.

[2] = cited from earlier work
[3] = PK evaluation of psilocin and psilocybin after IV and PO administration in rats; assay type: in vivo, CD rats; conditions: for PK values, including Cmax and AUC and Cl: IV administration; for PK values, including Cmax and AUC and Cl / PK values, including tmax, t1/2, AUC, and bioavailability: psilocin versus psilocybin; for PK values, including tmax, t1/2, AUC, and bioavailability: PO administration
Protocol: PK Evaluation of Psilocin and Psilocybin after IV and PO Administration in Rats
(§1) The study was conducted in male/female CD rats. Test articles were formulated fresh in PBS. Psilocin and Psilocybin were administered IV and PO. Plasma samples were analyzed for psilocin and psilocybin (group 2).
(§2) FIGS. 2A-2C show PK characteristics of psilocin and psilocybin after IV dosing. FIGS. 3A-3B show PK characteristics of psilocin and psilocybin after PO dosing. FIGS. 4A-4B show psilocin and psilocybin after IV and PO dose.

[4] = Analytical characterization of dosing solutions used in the PK study; assay type: physicochemical; conditions: after 2 hours on the bench at room temperature, PBS, depending on the concentration
Protocol: as §1, §2
After IV administration, psilocybin is detectable in plasma for 15 minutes. PO administration of psilocin and psilocybin results in similar PK values, including tmax, t1/2, AUC, and bioavailability. […] Low stability of psilocin in aqueous solutions could be a contributing factor to observed differences. […] Stabilization of psilocin provides viable, stable formulations and lower variability of dosing solutions, resulting in a better PK, such as compared to psilocybin.

[5] = protected from light, over 14 days; cited from earlier work
[6] = HPLC solution stability and stress conditions, free base versus tartrate salt
[7] = after IV administration of psilocybin; cited from earlier work
intestinal epithelia = conditions: cited from earlier work
[8] = Dynamic vapor sorption/desorption (DVS) analysis; assay type: physicochemical
Protocol: The weight versus time and percent weight change versus percent relative humidity (RH) curves from the DVS analysis of psilocin tartrate lot 16782-15C is presented in FIGS. 13 and 14, respectively.
DVS analysis was carried out using a TA Instruments Q5000 Dynamic Vapor Sorption analyzer. The instrument was calibrated with standard weights and a sodium bromide standard for humidity. Approximately 12 mg of the powder sample was loaded into a metal-coated quartz pan for analysis. The sample was analyzed at 25° C. after being equilibrated to […] in 10% RH steps from 5 to 95% RH (adsorption cycle) and from 95 to 5% RH (desorption cycle). The movement from one step to the next occurred either after satisfying the equilibrium criterion of 0.01% weight change in 5 minutes or, if the equilibrium criterion was not met, after 90 minutes. The percent weight change values were calculated using Microsoft Excel® 2016.

[9] = Analytical characterization of a psilocin tartrate sample (solid state); assay type: physicochemical; conditions: OM, XRPD, DSC, TGA, DVS
Excerpt: One sample of psilocin tartrate (lot 16782-15C) was submitted for optical microscopy (OM), X-ray powder diffraction (XRPD), differential scanning calorimetry (DSC), thermogravimetric analysis (TGA), dynamic vapor sorption/desorption (DVS), and ^1H NMR spectroscopy.

O=C1O[C@H]([C@@H](O)CO)C(O)=C1O [Ascorbic]
Results at 18 h [1]: 0 | Result at 6 days [1]: C + solid

Br.CN(C)CCc1c[nH]c2cccc(O)c12 [HBr1]
stability upon exposure to AAC (Exposure of HBr1 to AAC): unstable

O=C(O)CC(=O)O [Malonic]
Results at 18 h [1]: F ^c | Result at 6 days [1]: ↑C

O=C(O)c1ccccc1O [Salicylic]
Results at 18 h [1]: 0 | Result at 6 days [1]: ↑C

O=C(O)CCC(=O)O [Succinic]
Results at 18 h [1]: F ^c | Result at 6 days [1]: ↑C

CN(C)CCc1c[nH]c2cccc(O[C@@H]3O[C@H](C(=O)O)[C@@H](O)[C@H](O)[C@H]3O)c12 [psilocin glucuronide]
short-term stability compared with psilocin ([2]; one week, whole blood at room temperature and deep frozen samples): better than that of psilocin | long-term stability compared with psilocin ([2]; six months, deep frozen serum and urine samples): greater long-term stability

CN(C)CCc1c[nH]c2cccc(O)c12 [psilocin, 4-hydroxy-N,N-dimethyltryptamine]
PK values, including Cmax and AUC and Cl [3]: almost identical | PK values, including tmax, t1/2, AUC, and bioavailability [3]: similar | Cmax ([3]; both sexes, CD, rat, PO administration of psilocin, plasma psilocin, read-out: Measured Cmax): 0.153 µg/mL | degradation of dosing solutions [4]: 30%-70% | peak loss [5]: 50% | psilocin lost ([2]; biological samples with addition of 25 mM ascorbic acid): greater than 5% | stability under a variety of stress conditions ([6]; FIG. 20): limited stability

CN(C)CCc1c[nH]c2cccc(OP(=O)(O)O)c12 [psilocybin, 4-phosphoryloxy-N, N-dimethyltryptamine, reference compound]
PK values, including Cmax and AUC and Cl [3]: almost identical | PK values, including tmax, t1/2, AUC, and bioavailability [3]: similar | time psilocybin is detectable in plasma ([3]; after IV administration): 15 min | inter-individual variability of psilocin concentrations [7]: over 3 fold | permeability (intestinal epithelia): not permeable

Adipic
Result at 6 days [1]: ↑C

Fumaric
Results at 18 h [1]: F ^c

L-Tartaric
Results at 18 h [1]: 0 ^d

Maleic
Results at 18 h [1]: 0 | Result at 6 days [1]: ↑C

Mandelic
Results at 18 h [1]: 0

Oxalic
Results at 18 h [1]: 0

psilocin tartrate
hygroscopicity [8]: moderately hygroscopic | wt. loss upon equilibration at 5% RH ([8]; 25° C.): 0.12% wt. loss upon equilibration at 5% RH | wt. gain from 5 to 95% RH ([8]; 25° C., adsorption cycle): 4.64% wt. gain from 5 to 95% RH | wt. loss from 95 to 5% RH ([8]; 25° C., desorption cycle): 4.67% wt. loss from 95 to 5% RH | solid-state stability [9]: stable crystalline solid | stability in solution compared to the free base ([6]; HPLC, FIG. 21): improved stability
